According to US20220273658A1, “SMALL MOLECULE LIVER X RECEPTOR MODULATORS AND USES THEREOF” (University of Houston System, priority 2019, published 2022):
Each block holds one compound with its values, some of them ahead of it.

Tests used:
[1] = pre-clinical testing; cited from earlier work
MDSC and CD8+ T-cells = conditions: in vivo; cited from earlier work
PDAC cells [2] = test: cell viability with glutaminase inhibitor BPTES and 1E5; type: cell-based, human; conditions: BPTES alone
Description: TCA cycle intermediates act as anaplerotic substrate for gluconeogenesis and lipogenesis. […] GOT2 converts glutamine-derived glutamate to alpha-KG. During this process oxaloacetate is converted to aspartate which is required to maintain redox homeostasis. Studies have shown that inhibition of GOT2 in PDAC promotes senescence.

[3] = test system: myeloid-derived suppressor cells (MDSCs); conditions: in vivo; cited from earlier work
PDAC = PDAC patients; cited from earlier work
[4] = test system: BxPC-3, Mia-PaCa-2, and PANC-1; test: cell proliferation, live cells quantified by trypan blue exclusion; type: cell-based, human; conditions: increasing GW3965 concentrations; all three cell lines
Procedure: (§1) To determine the effects of LXR ligands on PDAC cell proliferation, cells were treated with synthetic LXR agonist GW3965 and live cells were quantified using trypan blue exclusion assays. […] FIGS. 8A, 8B, and 8C show dose-dependent decreases in cell proliferation in BxPC-3, Mia-PaCa-2, and PANC-1, respectively upon treatment with increasing GW3965 concentrations. […] Clonogenic assays were also employed to evaluate the effects of long-term LXR ligand treatment on cell proliferation and colony formation. […] These findings indicate that LXRs are involved in PDAC cell proliferation and targeting LXRs with ligands perturb their normal functions in cell proliferation.

PDAC cell lines [5] = test: MTS assay of overall cell metabolic rate; type: cell-based, human; conditions: increasing concentrations of GW3965
PDAC cell lines [6] = test: tetrazolium salt reduction (WST) assay in PDAC cell lines; type: cell-based, human; conditions: GW3965, WST assay
Procedure: as §1
(§2) The initial identification and subsequent characterization of the two novel LXR ligands and their derivative compounds was carried out in screens in three human pancreatic cancer cell and one non-transformed human pancreatic epithelial cell line in three or more replicate experiments for each cell line using the WST tetrazolium salt reduction assays.

PDAC cell lines [7] = test: clonogenic assay, colony formation; type: cell-based, human; conditions: long-term treatment, each cell line
Procedure: as §1

BxPC-3-luc2 cells = test: orthotopic xenograft mouse model of pancreatic cancer; type: in vivo
Description: Data from studies using cultured cancer cell lines indicate that LXR agonists have anti-proliferative effects on PDAC cells by disrupting cell cycle progression and expression of key regulatory proteins and growth pathways. To determine the effects of ligands in vivo using a live imaging system, BxPC-3 cells engineered with […] firefly luciferase gene (BxPC-3-luc2) were obtained from a commercial source (Perkin Elmer) and then validated for luciferase expression and response to GW3965 treatment in culture. […] NCr athymic nude mice (n=5 per treatment group) were orthotopically injected with BxPC-3-luc2 cells and then gavaged daily with GW3965 dissolved in 0.5% methylcellulose or vehicle only. Animals were anesthetized, injected with luciferin, and imaged weekly to monitor and quantify tumor growth. […] Experiments were terminated after two weeks due to the morbidity associated with the tumor burden in test animals. […] Statistically significant differences in additive effects as compared to single compound treatments are denoted with asterisks.

[8] = test system: LXR target genes SREBF1c, ABCA1, and ABCG1; test: expression of LXR target genes in pancreatic cancer cell lines; type: cell-based, human; conditions: for expression of LXR target genes: three pancreatic cancer cell lines
Description: To characterize the activity of the newly discovered ligands, the expression of LXR target genes SREBF1c, ABCA1, and ABCG1 was examined following treatment with vehicle, synthetic agonist GW3965, and Compounds 1E5 and 3A4. […] Basal expression of SREBF1c, the canonical LXR target gene involved in the regulation of glucose and lipid metabolism, was disrupted by the addition of novel LXR ligands, whereas their expression was induced following treatment with synthetic agonist GW3965 in all three pancreatic cancer cell lines tested, whereas the effects on ABCA1 and ABCG1 varied between the two novel ligands and across the cell lines.
(§3) To elucidate mechanisms of inverse agonism by the novel ligands, TR-FRET experiments were conducted to determine the effects of 1E5 and 3A4 on the recruitment of NR co-activators and co-repressors. […] In addition to their functions as inverse agonists, extended treatments with 1E5 and 3A4 also destabilized or decreased LXR proteins.

LXR-LBD = test: differential scanning fluorimetry; type: binding
Description: (§4) The synthesis and characterization of KD-01-39, a derivative of 3A4, have not been described previously.

PDAC cells [9] = test: treatment of PDAC cells with KD-01-39 (FIG. 32); type: cell-based, human; conditions: all cancer lines tested
Description: as §4

HPNE cells = test: growth of non-transformed pancreatic epithelial cells (WST screen; FIG. 32D); type: cell-based, human; conditions: FIG. 32(D)
Procedure: as §2, §4

KPC tumor cells = test: growth of KPC tumor cells from mouse model of PDAC; type: cell-based
Description: The effects of the ligands and derivatives on the growth of PDAC cells were further validated by cell counting and clonogenic assays.

[10] = test system: LXR ligand-binding domain; test: TR-FRET assay of co-activator and co-repressor peptide recruitment; type: biochemical
Procedure: as §3, §4

Structure (SMILES): O=S(=O)(c1ccccc1)N(CC(F)(F)F)c1ccc(C(O)(C(F)(F)F)C(F)(F)F)cc1 [Compound T0901317]
circulating and liver triglyceride levels [1]: increased circulating and liver triglyceride levels

Structure (SMILES): Cc1cc(C)c(S(=O)(=O)N(CCc2cccc(Br)c2)Cc2ccc(-c3cccc(S(C)(=O)=O)c3)cc2)c(C)c1 [SR9243]
MDSC recruitment to tumors (MDSC and CD8+ T-cells): decreased MDSC recruitment to tumors
expansion and recruitment of tumor-killing CD8+ T-cells (MDSC and CD8+ T-cells): increased the expansion and recruitment

Structure (SMILES): O=C(Cc1ccccc1)Nc1nnc(CCSCCc2nnc(NC(=O)Cc3ccccc3)s2)s1 [BPTES, reference compound]
pancreatic cancer cell viability (PDAC cells [2]): reduced pancreatic cancer cell viability

Structure (SMILES): C[C@H](CCOc1cccc(CC(=O)O)c1)N(Cc1cccc(C(F)(F)F)c1Cl)CC(c1ccccc1)c1ccccc1 [RGX-104]
anti-tumor effects of PD-1 inhibitor immunotherapy [3]: enhanced the anti-tumor effects of PD-1 inhibitor immunotherapy
recruitment and apoptosis of immunosuppressive MDSCs [3]: blocked the recruitment and increased apoptosis

Structure (SMILES): Nc1ccn([C@@H]2O[C@H](CO)[C@@H](O)C2(F)F)c(=O)n1 [gemcitabine]
improvement of median survival (PDAC): approximately two weeks

Structure (SMILES): O=C(O)Cc1cccc(OCCCN(Cc2cccc(C(F)(F)F)c2Cl)CC(c2ccccc2)c2ccccc2)c1 [GW3965]
cell proliferation [4]: significantly inhibited
overall metabolism (MTS) (PDAC cell lines [5]): dose-dependent drop in overall metabolism
anti-tumor effects of PD-1 inhibitor immunotherapy [3]: enhanced the anti-tumor effects of PD-1 inhibitor immunotherapy
recruitment and apoptosis of immunosuppressive MDSCs [3]: blocked the recruitment and increased apoptosis
circulating and liver triglyceride levels [1]: increased circulating and liver triglyceride levels
growth of PDAC cell lines (PDAC cell lines [6]): suppressed the growth of PDAC cell lines in a dose-dependent manner
colony formation (PDAC cell lines [7]): strongly inhibited colony formation
tumor growth (luciferase signal) (BxPC-3-luc2 cells; 40 mg/kg and 80 mg/kg, daily gavage, one and two weeks): reduced tumor growth
tumor size, post-mortem examination (BxPC-3-luc2 cells; control vs treated animals): significant differences in tumor size
bioavailability following ingestion (BxPC-3-luc2 cells; daily gavage): confirmed the bioavailability
toxicity following ingestion (BxPC-3-luc2 cells; mouse, in vivo): low toxicity
basal expression of SREBF1c ([8]; all three pancreatic cancer cell lines): induced
expression of LXR target genes [8]: increased target gene expression

efficacy against cancer lines compared with 3A4 (PDAC cells [9]): same or similar efficacy as 3A4
effect on non-cancerous pancreatic HPNE cells (HPNE cells): minimal effect
Structure (SMILES): COc1cc(OC)cc(C(=O)N2CCN(c3ccccc3Br)CC2)c1 [KD-01-39]
LXR-LBD structure and dye dissociation with increasing temperature (LXR-LBD): disrupted the LBD structure
expression of LXR target genes [8]: decreased the expression of LXR target genes
growth of KPC tumor cells (KPC tumor cells): inhibition of pancreatic cancer cells
co-activator peptide binding to LXR ligand-binding domain ([10]; co-activator (D22) peptide): did not affect recruitment of co-activator peptides
binding of NCOR and SMRT co-repressor peptides ([10]; co-repressor (NCOR and SMRT-ID2) peptides): enhanced recruitment of NCOR and SMRT co-repressor peptides in a dosage dependent manner
